Experimental data reported in article PMC6934184, “Selective DNA-PKcs inhibition extends the therapeutic index of localized radiotherapy and chemotherapy” (The Journal of Clinical Investigation, 2019).

Molecular target: T1, MAPK12 (p38 gamma) (Homo sapiens, UniProt P53778)
T1 construct: purchased Thermo Fisher Scientific (Life Technologies) SelectScreen
Assay: SelectScreen Z'LYTE
Assay type: biochemical
Procedure, shortened: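 Percent values come from Thermo SelectScreen profiling of NU5455, combining activity and binding assays. CSF1R was run in Z'LYTE format at Km app ATP, and CAMK1 in Adapta format with ATP listed at 10.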

T1 sequence (P53778 whole entry): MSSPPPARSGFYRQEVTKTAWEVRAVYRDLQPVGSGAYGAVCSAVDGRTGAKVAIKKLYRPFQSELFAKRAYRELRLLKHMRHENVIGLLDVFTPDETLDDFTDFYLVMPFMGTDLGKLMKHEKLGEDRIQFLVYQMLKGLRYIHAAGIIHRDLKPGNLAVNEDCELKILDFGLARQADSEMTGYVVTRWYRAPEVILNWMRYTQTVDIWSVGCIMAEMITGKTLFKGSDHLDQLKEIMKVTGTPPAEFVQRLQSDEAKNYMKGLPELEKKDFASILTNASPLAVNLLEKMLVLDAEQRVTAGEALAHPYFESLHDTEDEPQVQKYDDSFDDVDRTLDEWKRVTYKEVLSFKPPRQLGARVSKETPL

Question: CN(C(=O)CN1CCOCC1)c1ccc2sc3c(-c4cccc5c(=O)cc(N6CC7CCC(C6)O7)oc45)cccc3c2c1 [NU5455] was tested. Which inhibition at 1 µM did it give?
Answer: -0.8%
